One data set relates to Hela cells. As to the kind of experiment: MTT viability assay, Hela cells. The format is cell-based, human. Particulars: Homo sapiens, HeLa, 48 h incubation, mean, n = 3, read-out: IC50 against Hela cells. As for the experimental part:
(§1) The anticancer activities of the exemplary compounds listed in Example 1 were tested against human cervix Hela cells, mammary breast cancer MDA-MB-231 cells, human hepatocellular HepG2 cells, human colorectal HCT116 cells, mammary ductal T47D cells, non-cancerous NIH3T3 cells, dog's kidney MDCK cells, and mouse brain bEnd.3 cells, respectively.
For orientation: Tetrazolium assays rely on reduction of a dye to a coloured formazan, in cell work by metabolically active cells.

A further data set deals with HEK293 cells. Description: MTT viability assay, HEK293 cells. Type of data set: cell-based. The following applies: Homo sapiens, HEK293, 48 h incubation, mean, n = 3, read-out: IC50 against HEK293 cells.
Another data set concerns HepG2 cells. As to the kind of experiment: MTT viability assay, HepG2 cells. The format is cell-based, human. The method, then: as §1
The next data set has as its system bEnd.3 cells. As to the kind of experiment: MTT viability assay, bEnd.3 cells. The format is cell-based, mouse. Particulars: Mus musculus, BEND3, 48 h incubation, mean, n = 3, read-out: IC50 against bEnd.3 cells. As for the experimental part: as §1
For another data set, the system named is MCF7. As to the kind of experiment: Viability IC50, MCF7 cells. Type of data set: cell-based. The following applies: Homo sapiens, Table 12a.
Data set [1] concerns HEYA8 CSCs. Description: CellTiter-Glo viability, HeyA8 cancer stem cells (spheres). The format is cell-based. The following applies: for IC50: HEY A8, cancer stem cell spheres, CellTiter-Glo, 48 hrs, n = 3, read-out: IC50 HeyA8sp (HEYA8 CSCs); for cell viability of ovarian cancer cells and cancer stem cells (FIG. 3C, words): both ovarian cancer cells and CSCs. (In general: Cellular ATP, detected with luciferase, serves as a proxy for viable cell number.)

The next data set has as its system NIH3T3. Description: CellTiter-Glo viability, NIH3T3 cells (Table 14). The format is cell-based. The following applies: Mus musculus, 48 hrs, n = 3.
For data set [2], the system named is HEYA8 CSC xenograft tumors. Description: Mouse xenograft ovarian tumors (HEYA8 CSC). The format is in vivo. The following applies: for tolerability of regimens in tested animals / abnormal behavior or weight loss during treatment period: HEYA8 CSC xenograft mice; for abnormal behavior or weight loss during treatment period: entire treatment period. The method, then:
FIG. 7A is a graph showing the tumor volume of xenograft tumors versus time after s.c. injection of DMSO, PTX, compound 37b, or compound 48. Nude mice were injected s.c. with HEYA8 CSC cells (10^6) and randomly allocated to one of the six treatment groups (n=4): (i) DMSO, (ii) Paclitaxel (PTX), 5 mg/kg, (iii) compound 37b, 5 mg/kg, (iv) compound 37b, 10 mg/kg, (v) compound 48, 5 mg/kg, or (vi) compound 48, 10 mg/kg. When control animals (DMSO) began to appear tumor ulceration (25 days), all animals in the experiment were sacrificed and photographed. FIG. 7B are photographs of the tumor from sacrificed animals of different treatment groups after 25 days. FIG. 7C is a graph showing the tumor weight of xenograft tumors versus time after s.c. injection of DMSO, PTX, compound 37b, or compound 48. Data are shown as mean±SEM. * P≤0.05 versus DMSO group.
The cytotoxicity of 1,2,4,5-tetraoxanes 48 and 37b on cancer stem cell (CSC) model of HEY A8 CSCs and mouse xenograft ovarian tumors (FIG. 2) was examined. Nude mice were injected s.c. with HEYA8 CSC cells […] and randomly allocated to one of the six treatment groups (n=4): (i) DMSO, (ii) Paclitaxel (PTX), 5 mg/kg, (iii) compound 37b, 5 mg/kg, (iv) compound 37b, 10 mg/kg, (v) compound 48, 5 mg/kg, and (vi) compound 48, 10 mg/kg. When control animals (DMSO) began to appear tumor ulceration (25 days), all animals in the experiment were sacrificed and photographed. It is known that ovarian CSCs have resistance to Taxol, so Taxol was used as negative control.

For data set [3], the system named is lipid ROS in MDA-MB-231 cells. Description: C11-BODIPY lipid ROS detection in MDA-MB-231 cells. Particulars: 48 5 μM, 37b 1 μM, RSL3 0.5 μM; 6 h incubation. Type of data set: cell-based. The method, then:
FIG. 11 is a bar graph showing the detection of lipid ROS with compound 48 (5 μM), compound 37b (1 μM), or RSL3 (0.5 μM) by BODIPY 581/591 C11 after 6 h incubation in MDA-MB-231 cells. **P≤0.01 versus DMSO group. Data are plotted as the mean±SD, n=3 biologically independent samples. All P values were determined using two-tailed Student's t-test.
Since lipid peroxidation is the evidence about ferroptosis, C11-BODIPY probe is used to validate the lipid ROS generated by tetraoxanes. It is a ratiometric membrane-targeted probe which changes the emission from 590 nm to 510 nm upon the detection of lipid ROS. Here, MDA-MB-231 cells were treated with 48, 37b and RSL3, respectively. The lipid ROS levels were quantified by flow cytometry. Untreated group gave weak signal in FL1 channel (FIG. 11).

In data set [4] the test system is HEYA8 CSCs. As to the kind of experiment: Protective effect of Q-VD-OPh, DFX and Fer-1 on HEYA8 CSCs. Type of data set: cell-based. Particulars: for cell death pathway: HEYA8 cancer cells and CSCs. As for the experimental part:
FIGS. 5A-5B are bar graphs showing the protective effect of Q-VD-OPh, deferasirox (DFX) and ferrostatin-1 (Fer-1) on HeyA8 cancer stem cells (FIG. 5A) and HeyA8 spheres (FIG. 5B) after treatment with compound 48 and compound 37b, respectively, for 24 h. *P≤0.05, **P≤0.01 versus non-pretreated group. Data are plotted as the mean±SD, n=3 biologically independent samples. N.S., no statistically significant change. All P values were determined using two-tailed Student's t-test.

Another data set has as its system Jurkat cells. Description: MTT viability assay, Jurkat cells. Type of data set: cell-based. The following applies: Homo sapiens, 48 h incubation, mean, n = 3, read-out: IC50 against Jurkat cells.
A further data set concerns HL-60 cells. As to the kind of experiment: MTT viability assay, HL-60 cells. The format is cell-based. Particulars: for IC50: Homo sapiens, HL-60.
The subject of the next data set is HEY A8 cells. Description: Protective effect of DFO and Fer-1 on adherent HEY A8 cells. The format is cell-based. The following applies: 24 h treatment. The method, then: FIG. 4 is a bar graph showing the protective effect of DFO and Fer-1 on HeyA8 cancer cells after treatment with compound 48 for 24 h. *P≤0.01, ***P≤0.001 versus non-pretreated group. Data represent mean±SD, n=3 biologically independent samples. All P values were determined using two-tailed Student's t-test.

As a reminder, the IC50 is the concentration that inhibits the measured activity by half.

Like-named read-outs stand apart in the source and are kept apart here.

Take `CC(C)(C)C1CCC2(CC1)OOC1(CCC(OC(=O)NCCC[P+](c3ccccc3)(c3ccccc3)c3ccccc3)CC1)OO2.[Br-]` (centres unmarked) [Compound 37b, (3-((((12-(tert-butyl)-7,8,15,16-tetraoxadispiro[5.2.59.26]hexadecan-3-yl)oxy)carbonyl)amino)propyl)triphenylphosphonium bromide]: the IC50 was 1.6 µM in the data set on Hela cells; 1.6 µM with HEK293 cells; 0.7 µM in the data set with HepG2 cells (Homo sapiens, HepG2, MTT, 48 h incubation, mean, n = 3, read-out: IC50 against HepG2 cells); 5.2 µM in the data set with bEnd.3 cells; 2.4 ± 1.7 µM with MCF7; 1.1 ± 0.4 µM in the data set on HEYA8 CSCs [1]. In the data set with NIH3T3, it took 4.6 ± 1.9 µM to reach half-maximal inhibition (IC50). The “fold more cytotoxic than RKA182 for HepG2 cells” value in the data set with HepG2 cells (comparator RKA182) was 36 fold. Besides, the “cell viability of ovarian cancer cells and cancer stem cells (FIG. 3C, words)” value in the data set with HEYA8 CSCs [1] was “could diminish the cell viability”. Also, the “tumor growth compared with vehicle control” value in data set [2] (5 mg/kg and 10 mg/kg, HEYA8 CSC xenograft, 25 days) is on record as “effective in inhibiting tumor growth”. In data set [2], the “tolerability of regimens in tested animals” value was “well-tolerated”. In addition, in [2], the “abnormal behavior or weight loss during treatment period” value is “no abnormal behavior or weight loss”. Moreover, in data set [3], the “lipid ROS (BODIPY 581/591 C11, FL1, flow cytometry)” value was “lipid ROS was generated”. Further, the “cell death pathway” value in the data set with HEYA8 CSCs [4] was “induced ferroptosis instead of apoptosis”.

As to `CC(C)(C)C1CCC2(CC1)OOC1(CCC(OC(=O)NCCC[N+](C)(Cc3ccccc3)Cc3ccccc3)CC1)OO2.[I-]` (centres unmarked) [Compound 48, N,N-dibenzyl-3-((((12-(tert-butyl)-7,8,15,16-tetraoxadispiro[5.2.59.26]hexadecan-3-yl)oxy)carbonyl)amino)-N-methylpropan-1-aminium iodide], the IC50 is 6.3 µM with Hela cells; 1 µM in the data set with Jurkat cells; 1.2 ± 0.9 µM in the data set on HL-60 cells (MTT, 48 h incubation, mean, n = 3, read-out: IC50 against HL-60 cells); 1.2 ± 0.9 µM with HL-60 cells (Table 12b, read-out: IC50 HL-60); 1.2 ± 0.9 µM with HL-60 cells (Table 13, experimental data, MTT, 48 hrs, n = 3, read-out: IC50 HL-60); 8.7 ± 4.1 µM in the data set on MCF7. Further, the concentration for half-maximal inhibition (IC50) with HEYA8 CSCs [1] was 1.2 ± 0.5 µM; in the data set on NIH3T3, 29 ± 5.7 µM. Besides, in the data set with HL-60 cells (Table 13, value in bracket), the “selectivity index (IC50 of NIH3T3 divided by IC50 on HL-60)” value is given as “(>24)”. The “fold more cytotoxic to HL-60 cells than OZ439” value in the data set on HL-60 cells (comparator OZ439) was “at least 9 fold”. The “fold more potent than RKA182 in HL-60 cells” value in the data set with HL-60 cells (comparator RKA182) turned out to be 9 fold. Further, in the data set on HEYA8 CSCs [1], the “fold more cytotoxic to HEYA8 CSCs than non-cancerous cells” value is listed as “at least 24 fold”. Moreover, the “cell viability of ovarian cancer cells and cancer stem cells (FIG. 3C, words)” value with HEYA8 CSCs [1] is “could diminish the cell viability”. Further, the tumor size result in data set [2] (10 mg/kg, HEYA8 CSC xenograft, 25 days) was “reduced the tumor size”. The “tolerability of regimens in tested animals” value in data set [2] is listed as “well-tolerated”. In data set [2], the “abnormal behavior or weight loss during treatment period” value is reported as “no abnormal behavior or weight loss”. Moreover, the “lipid ROS (BODIPY 581/591 C11, FL1, flow cytometry)” value in data set [3] is on record as “lipid ROS was generated”. The “effect of DFO or Fer-1 pretreatment on induced cell death, adherent HEY A8 cells” value in the data set with HEY A8 cells is “reversed the cell death”. Also, in the data set with HEYA8 CSCs [4] (24 h treatment), the “effect of Fer-1 co-treatment on HEYA8 CSCs” value is reported as “majority of the CSCs remained unaffected”. In the data set on HEYA8 CSCs [4] (24 h treatment), the “effect of deferasirox (DFX) on cell death in HEYA8 CSCs” value is on record as “rescue part of the cell death”. Further, in the data set with HEYA8 CSCs [4], the “cell death pathway” value is listed as “ferroptosis”.

The record behind these values is patent US20240101584A1, “TARGETED DELIVERY OF 1,2,4,5 TETRAOXANE COMPOUNDS AND THEIR USES” (Westlake University, priority 2021, published 2024).
